Some test systems named below: HOP-92; OVCAR-8; HCT-116; NCI-H460; IGROV-1; UO-31; SNB-19; RPMI-8226; MDA-MB-231; UACC-62; Hs-578T; MDA-N; CAKI-1; HCC 2998; SR; SW-620; HT-29; K562; TK-10.
Holding throughout (experiment): NCI-60 cell line screen, 48 h

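Results reflect a 48-hour exposure of cells in 96-well plates to compound at five concentrations. Abbreviation: GI50, concentration required for 50% inhibition of growth.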 Calls of active or inactive are those of the source. Cut-off read from the data, not from the text of the source: active = GI50 up to about 1.1 µM and inactive = higher.

The record followed here is ChEMBL document CHEMBL1201862, “PubChem BioAssay data set” (2004).

Take `COC(=O)c1ccccc1NC(=O)/C(=N\NC(C)(C)C)C(C#N)c1nc(-c2ccc([N+](=O)[O-])cc2)cs1` (stereo not drawn): the GI50 with HOP-92, in the experiment with OVCAR-8, with HCT-116, in the experiment with NCI-H460, in the experiment on IGROV-1 and with UO-31 was > 100 µM (inactive) each time. The GI50 in the experiment with SNB-19, in the experiment on RPMI-8226, with MDA-MB-231, in the experiment on UACC-62, in the experiment with Hs-578T and in the experiment on MDA-N was > 100 µM (inactive) throughout. Further, the GI50 in the experiment on CAKI-1, in the experiment with HCC 2998, in the experiment on SR, in the experiment on SW-620, in the experiment with HT-29 and with K562 was > 100 µM (inactive) in each case.

`N=C1OC(CN2CCN(c3ccccc3)CC2)CN1C(=O)Nc1ccccc1` (stereo not drawn): the GI50 with HOP-92, with OVCAR-8, in the experiment on HCT-116, in the experiment with NCI-H460, in the experiment with IGROV-1 and with UO-31 was > 100 µM (inactive) throughout. Further, the GI50 in the experiment on SNB-19, with RPMI-8226, with MDA-MB-231, in the experiment on UACC-62, in the experiment with TK-10 and in the experiment on Hs-578T was > 100 µM (inactive) each time. Also, the GI50 was > 100 µM (inactive) with MDA-N; > 100 µM (inactive) with CAKI-1; > 100 µM (inactive) with HCC 2998; 57.7 µM (inactive) with SR; > 100 µM (inactive) with SW-620; > 100 µM (inactive) in the experiment on HT-29. Besides, the GI50 in the experiment on K562 is 60.5 µM (inactive).

Take `CC1=C[C@@H](C)C[C@]2(C)CC[C@H](O2)[C@]23CC[C@](C(=O)O)(C[C@H](O2)[C@@H]2O[C@@](C)(CC2=O)[C@@H](O)[C@H]2CC[C@@]4(CCC[C@@H](O4)[C@H](C)C(=O)O[C@H]4C[C@H]([C@]5(O)OCC[C@H](C)[C@@H]5O)O[C@H]4C=C1)O2)O3`: the GI50 in the experiment with HOP-92 was > 3.92 µM (inactive); with OVCAR-8, > 10 µM (inactive); with HCT-116, > 10 µM (inactive); in the experiment on NCI-H460, > 10 µM (inactive); with IGROV-1, > 5.5 µM (inactive); in the experiment on UO-31, > 10 µM (inactive). Also, the GI50 in the experiment with SNB-19 was > 10 µM (inactive); in the experiment on RPMI-8226, > 10 µM (inactive); in the experiment on MDA-MB-231 it was > 10 µM (inactive); in the experiment on UACC-62, > 9.02 µM (inactive); in the experiment with TK-10, > 7.62 µM (inactive); with Hs-578T, > 3.78 µM (inactive). In addition, the GI50 with MDA-N is > 8.95 µM (inactive); in the experiment with CAKI-1 it was > 10 µM (inactive); in the experiment with HCC 2998, > 10 µM (inactive); in the experiment on SR it was > 10 µM (inactive); in the experiment on SW-620, > 10 µM (inactive); in the experiment on HT-29, > 10 µM (inactive). Moreover, the GI50 in the experiment on K562 is > 10 µM (inactive).

`O=C(c1ccccc1)c1ccc(N2C(=O)/C(=C/Cc3ccco3)N=C2c2ccccc2)c(N2C(=O)/C(=C/Cc3ccco3)N=C2c2ccccc2)c1`: the GI50 in the experiment with HOP-92 is 97.1 µM (inactive); with OVCAR-8, 29.3 µM (inactive); with HCT-116, 40.2 µM (inactive); in the experiment with NCI-H460 it was 36.6 µM (inactive); in the experiment on IGROV-1, 39.2 µM (inactive); in the experiment with UO-31, 39 µM (inactive). Also, the GI50 in the experiment on SNB-19 is 47.4 µM (inactive); in the experiment on RPMI-8226, 27.8 µM (inactive); in the experiment on MDA-MB-231, 37.9 µM (inactive); in the experiment on UACC-62, 26.5 µM (inactive); in the experiment on TK-10, 55.8 µM (inactive); in the experiment on Hs-578T, 25.8 µM (inactive). Moreover, the GI50 is 60.3 µM (inactive) in the experiment on MDA-N; 67.5 µM (inactive) in the experiment with CAKI-1; 36.9 µM (inactive) in the experiment with HCC 2998; 28.6 µM (inactive) in the experiment with SR; 39.8 µM (inactive) in the experiment with SW-620; 43.4 µM (inactive) in the experiment on HT-29. For the same molecule, in the experiment with K562, the GI50 was 64.7 µM (inactive).

With `CC(=O)OCC(=O)O[C@@H]1[C@H]2[C@@H](OC(=O)c3ccccc3)[C@@H](C)C[C@]2(O)[C@H](OC(C)=O)[C@@]2(C)C[C@]1(OC(C)=O)C[C@H]1C(=O)C(C)(C)[C@@H](OC(C)=O)[C@@H]12`, the GI50 in the experiment with HOP-92 is > 16.3 µM (inactive); in the experiment with OVCAR-8, > 25 µM (inactive); in the experiment with HCT-116, > 25 µM (inactive); in the experiment with NCI-H460, 0.991 µM (active); in the experiment with IGROV-1, > 25 µM (inactive); with UO-31, 0.912 µM (active). Moreover, the GI50 is > 25 µM (inactive) with SNB-19; 17.9 µM (inactive) in the experiment on RPMI-8226; > 25 µM (inactive) in the experiment with MDA-MB-231; > 25 µM (inactive) in the experiment on UACC-62; > 25 µM (inactive) in the experiment with TK-10; 9.55 µM (inactive) in the experiment with Hs-578T. Moreover, the GI50 in the experiment with MDA-N was 6.98 µM (inactive); in the experiment with CAKI-1, 17.1 µM (inactive); with HCC 2998, 9.38 µM (inactive); in the experiment with SR, > 25 µM (inactive); with SW-620 it was 21.2 µM (inactive); in the experiment on HT-29, 9.42 µM (inactive). The GI50 with K562 was 1.48 µM (inactive).

In the case of `CC1=C2C(=O)c3ccccc3C(=O)[C@H]2C[C@@H](N2CCCC2=O)O1`, the GI50 is 21.9 µM (inactive) in the experiment on HOP-92; 50.9 µM (inactive) in the experiment on OVCAR-8; 61.1 µM (inactive) in the experiment on NCI-H460; 80.9 µM (inactive) with IGROV-1; > 100 µM (inactive) in the experiment with UO-31; > 100 µM (inactive) in the experiment with SNB-19. For the same molecule, the GI50 in the experiment with RPMI-8226 was 21.7 µM (inactive); with MDA-MB-231, 39.6 µM (inactive); in the experiment on UACC-62, 33 µM (inactive); in the experiment with TK-10, 70.3 µM (inactive); in the experiment on Hs-578T, 94.8 µM (inactive); in the experiment with MDA-N it was 16.4 µM (inactive). In addition, the GI50 in the experiment with CAKI-1 was 77.3 µM (inactive); in the experiment on HCC 2998 it was > 100 µM (inactive); in the experiment with SR it was 32.2 µM (inactive); in the experiment with SW-620, 23.8 µM (inactive); in the experiment on HT-29, 41.6 µM (inactive); in the experiment on K562, 49.8 µM (inactive).

With `CN(C)c1ccc(/C=C(\NC(=O)c2ccccc2)C(=O)Nc2ccccc2C(=O)NN2C(=O)CSC2c2ccc(N(C)C)cc2)cc1` (stereo not drawn), the GI50 in the experiment on HOP-92 is > 100 µM (inactive); in the experiment on OVCAR-8, > 100 µM (inactive); with HCT-116 it was > 100 µM (inactive); with NCI-H460, 10.7 µM (inactive); in the experiment with IGROV-1, > 100 µM (inactive); with UO-31, > 100 µM (inactive). Moreover, the GI50 with SNB-19, in the experiment on RPMI-8226, in the experiment with MDA-MB-231, in the experiment with UACC-62, in the experiment on Hs-578T and with MDA-N was > 100 µM (inactive) throughout. In addition, the GI50 in the experiment on CAKI-1 was > 100 µM (inactive); with HCC 2998, 6.37 µM (inactive); with SR it was > 100 µM (inactive); with SW-620 it was > 100 µM (inactive); with HT-29, > 100 µM (inactive); with K562, 33.3 µM (inactive).

Regarding `O=c1c(-c2ccc3c(c2)OCO3)coc2c3c(ccc12)OCO3`, the GI50 is 18 µM (inactive) in the experiment on HOP-92; 33 µM (inactive) in the experiment on HCT-116; 17.2 µM (inactive) in the experiment on NCI-H460; 20.8 µM (inactive) in the experiment on IGROV-1; 43.7 µM (inactive) with UO-31; 21.4 µM (inactive) in the experiment on SNB-19. For the same molecule, the GI50 in the experiment with RPMI-8226 is > 100 µM (inactive); in the experiment on MDA-MB-231, 21.5 µM (inactive); in the experiment on UACC-62, 76.7 µM (inactive); in the experiment with TK-10, 19.1 µM (inactive); in the experiment on Hs-578T, 22.3 µM (inactive); in the experiment with MDA-N, 93.5 µM (inactive). Besides, the GI50 was 63.7 µM (inactive) in the experiment on CAKI-1; 58.1 µM (inactive) in the experiment on HCC 2998; 40 µM (inactive) in the experiment with SR; 39.7 µM (inactive) with SW-620; > 100 µM (inactive) in the experiment with K562.

On to `O=c1cc(NNc2cccc(Cl)c2)[nH]c(=O)[nH]1`, for which the GI50 with HOP-92 was 18.5 µM (inactive); in the experiment with HCT-116 it was 17.9 µM (inactive); in the experiment with NCI-H460, > 100 µM (inactive); in the experiment with IGROV-1 it was > 100 µM (inactive); with UO-31 it was 18.8 µM (inactive); with SNB-19 it was 46.3 µM (inactive). Also, the GI50 with RPMI-8226 was 20.3 µM (inactive); with MDA-MB-231 it was 17.9 µM (inactive); with UACC-62, 31.6 µM (inactive); in the experiment on TK-10 it was 20.8 µM (inactive); in the experiment with Hs-578T it was > 100 µM (inactive); in the experiment on MDA-N, 73.8 µM (inactive). Besides, the GI50 in the experiment on CAKI-1 is 19.1 µM (inactive); in the experiment on HCC 2998 it was 53 µM (inactive); in the experiment on SR, 4.29 µM (inactive); in the experiment on SW-620, 18.1 µM (inactive); in the experiment with HT-29, 80.2 µM (inactive); in the experiment on K562, 29 µM (inactive).

With `COc1ccc(C)c2c1N[C@](C)([C@]1(C)Nc3c(OC)ccc(C)c3C1=O)C2=O`, the GI50 with HOP-92 was 38 µM (inactive); with OVCAR-8, 49.4 µM (inactive); with HCT-116 it was > 100 µM (inactive); in the experiment on NCI-H460, > 100 µM (inactive); with IGROV-1, > 100 µM (inactive); with UO-31, > 100 µM (inactive). In addition, the GI50 with SNB-19 was 68.9 µM (inactive); in the experiment on RPMI-8226, > 100 µM (inactive); in the experiment with MDA-MB-231 it was > 100 µM (inactive); with UACC-62 it was > 100 µM (inactive); with Hs-578T it was 39.3 µM (inactive); with MDA-N, > 100 µM (inactive). The GI50 in the experiment with CAKI-1, in the experiment on HCC 2998, in the experiment with SR, in the experiment on SW-620, with HT-29 and with K562 was > 100 µM (inactive) in each case.
